# Test results published in PMC4864329, “In vitro and in vivo efficacy, toxicity, bio-distribution and resistance selection of a novel antibacterial drug candidate” (Scientific Reports, 2016).
# Positions of bridges follow the written chain, without caps; N, C: chain ends. Non-standard residues stand in square brackets, D forms with d. Residues, ends and D or L forms follow the SMILES beside them. Chains are numbered I, II in the order given. PEG4 = NCCOCCOCCOCCOCCC(=O)O
# Tests used:
# P. aeruginosa PAO1 [1] = test: Lung infection model in neutropenic BALB/c mice, i.v. treatment, survival; format: in vivo, Pseudomonas aeruginosa; conditions: PAO1 1.5 × 10^3 CFU/mouse i.t., 5 mg/Kg i.v. twice, 1 and 16 h post-infection, 10 days, 10 mice/group
# Procedure: Neutropenic mice were injected intra-tracheally (i.t.) with a lethal amount of P. aeruginosa PAO1 (1.5 × 10^3 CFU/mouse). They were then treated twice i.v. 1 and 16 hours post-infection with SET-M33L or SET-M33L-PEG 5 mg/Kg and monitored for survival for 10 days. We obtained 40% and 60% survival with SET-M33L and SET-M33L-PEG, respectively (Fig. 2A).
# Animal procedures were approved by the Ethics Committees of the Azienda Ospedaliera Universitaria Senese on November 18, 2010, and of the Italian Ministry of Health on September 21, 2012. Eight-week-old (20 g) BALB/c female mice (Charles River) were used in all experiments. The animals were maintained and handled in accordance with the Guidelines for Accommodation and Care of Animals (European Convention for the Protection of Vertebrate Animals Used for Experimental and Other Scientific Purposes) and internal guidelines. For each experiment the animals were housed in groups of five mice per cage upon arrival and maintained with food and water ad libitum for 5 days before the beginning of treatment. All p values were calculated using GraphPad Prism 5.0 software.
# We set up two lung infection models, one for i.v. and the other for intra-tracheal (i.t.) treatment. In the i.v. model, animals were made neutropenic as described in the sepsis model. […] Surviving mice were monitored for 10 days. […]
# P. aeruginosa PAO1 [2] = test: Sepsis model in neutropenic BALB/c mice, survival; format: in vivo, Pseudomonas aeruginosa; conditions: PAO1 1.5 × 10^3 CFU/mouse i.p., 5 mg/Kg i.v. twice, 24 and 72 h post-infection, 12 days, 10 mice/group
# Procedure: Neutropenic mice were injected i.p. with a lethal amount of P. aeruginosa PAO1 (1.5 × 10^3 CFU/mouse). Then mice were treated twice i.v. with SET-M33L or SET-M33L-PEG (5 mg/Kg), 24 and 72 hours post-infection. Then animals were monitored for survival for 12 days. Survivals of 60% and 80% were obtained with SET-M33L or SET-M33L-PEG, respectively (Fig. 1). Note that this is a model of acute and rapidly progressive infection, since animals start to show signs of disease within 24 hours and controls died after 40–65 hours. Treatment with the peptides begun 24 h after onset of the infection. The relatively long interval between i.p. inoculation of bacteria and the start of i.v. treatment in animals with suppressed immune systems is a valid indication of the potency of the peptides in vivo.
# Animal procedures were approved by the Ethics Committees of the Azienda Ospedaliera Universitaria Senese on November 18, 2010, and of the Italian Ministry of Health on September 21, 2012. Eight-week-old (20 g) BALB/c female mice (Charles River) were used in all experiments. […] All p values were calculated using GraphPad Prism 5.0 software.
# In the Pseudomonas model of sepsis[35] animals were rendered neutropenic by i.p. administration of cyclophosphamide (Sigma-Aldrich C7397) at 150 mg/kg (300 μl of a 10 mg/ml solution) 4 days and 1 day before infection. […] Surviving mice were monitored for 12 days. […]
# BALB/c mice = test: Acute toxicity in mice, single i.v. dose; format: in vivo, mouse
# Procedure: As preliminary toxicity evaluation we first compared the acute toxicity of SET-M33L and SET-M33L-PEG with that of colistin. Animals (10 BALB/c mice/group) were injected i.v. with different amounts of SET-M33L, SET-M33L-PEG or colistin, in single dose, in the range 5–40 mg/kg (Fig. 4), and were monitored for 4 days after inoculation of the peptide. […] At 40 mg/Kg SET-M33L and SET-M33L-PEG produced similar toxicity profiles with strong signs of toxicity and 90–100% mortality after 96 hours. Colistin produced strong signs of toxicity already at 10 mg/Kg: 50% mortality immediately after inoculation and 70% mortality after 24 hours. Colistin induced sudden death in 100% of mice at 20 and 40 mg/Kg.
# Mice were treated by a single i.v. administration of different amounts (40, 20, 10, 5 mg/Kg) of SET-M33L, SET-M33L-PEG or colistin sulfate (Sigma-Aldrich, C4461). Signs of toxicity were checked four times a day by visual inspection. A toxicity score was assigned for the following signs: wiry coat and poor motility = mild signs; very wiry coat, abundant lachrymation and poor motility even under stimulation = manifest signs. Animals were monitored for 4 days after inoculation of the peptide. Mice were weighed every day from arrival to the last day of the experiment. Moribund animals were killed humanely to avoid unnecessary distress.
structure (smiles),measurement,setting,value
"CC[C@H](C)[C@H](NC(=O)[C@H](CCCCN)NC(=O)[C@@H](N)CCCCN)C(=O)N[C@@H](CCCNC(=N)N)C(=O)N[C@H](C(=O)N[C@@H](CCCNC(=N)N)C(=O)N[C@@H](CC(C)C)C(=O)N[C@@H](CO)C(=O)N[C@@H](C)C(=O)NCCCC[C@H](NC(=O)[C@H](C)NC(=O)[C@H](CO)NC(=O)[C@H](CC(C)C)NC(=O)[C@H](CCCNC(=N)N)NC(=O)[C@@H](NC(=O)[C@H](CCCNC(=N)N)NC(=O)[C@@H](NC(=O)[C@H](CCCCN)NC(=O)[C@@H](N)CCCCN)[C@@H](C)CC)C(C)C)C(=O)NCCCC[C@H](NC(=O)[C@H](CCCCNC(=O)[C@H](C)NC(=O)[C@H](CO)NC(=O)[C@H](CC(C)C)NC(=O)[C@H](CCCNC(=N)N)NC(=O)[C@@H](NC(=O)[C@H](CCCNC(=N)N)NC(=O)[C@@H](NC(=O)[C@H](CCCCN)NC(=O)[C@@H](N)CCCCN)[C@@H](C)CC)C(C)C)NC(=O)[C@H](C)NC(=O)[C@H](CO)NC(=O)[C@H](CC(C)C)NC(=O)[C@H](CCCNC(=N)N)NC(=O)[C@@H](NC(=O)[C@H](CCCNC(=N)N)NC(=O)[C@@H](NC(=O)[C@H](CCCCN)NC(=O)[C@@H](N)CCCCN)[C@@H](C)CC)C(C)C)C(=O)NCCOCCOCCOCCOCCC(N)=O)C(C)C [SET-M33L-PEG] (I: H-KKIRVRLSAKK[PEG4]-NH2 / II: H-KKIRVRLSAK / III: H-KKIRVRLSA / IV: H-KKIRVRLSA; amide I:10-IV:C, I:11-II:C, II:10-III:C; N-terminus assumed)",survival,P. aeruginosa PAO1 [1],60%
same,survival,P. aeruginosa PAO1 [2],80%
same,mortality,"BALB/c mice; single i.v. dose 40 mg/Kg, after 96 hours",90–100%
same,lethality and signs of toxicity,"BALB/c mice; single i.v. dose up to 20 mg/kg, monitored 4 days, 10 BALB/c mice/group",not lethal and no signs of toxicity were observed
